The results in this text go back to patent publication US9713613B2, “Methods and compositions for the treatment of cancer and related hyperproliferative disorders” (priority 2007, dated 2017).

Assay [1] concerns SREBP-1. Nature of the assay: Western blot of SREBP-1 processing in DU145 cells. Format: cell-based, human. The following applies: 6 hrs, IGF1. As to the method: To examine whether fatostatin A affects the proteolytic activation of SREBPs, whole cell lysates of DU145 cells treated with fatostatin A were analyzed by western blots with an antibody against the NH2 terminus of SREBP-1 (FIG. 3A). […] Similar results were obtained for SREBP-2 with an antibody against its COOH terminus (FIG. 3B).
DU145 prostate cancer cells were seeded on a 6-well plate at a density of 2×10^5 cells/well in a serum-free MEM incubated at 37° C. for overnight. The cells were then treated with DMSO or fatostatin A ([…]) in presence of IGF1 (1 μg/mL). After 6 hrs of incubation, the cells were harvested in PBS and lysated in an SDS buffer. The samples were separated on a 10% SDS-PAGE gel and blotted by using rabbit anti-SREBP-1 and anti-SREBP-2 antibodies. The specific bands were visualized by using enhanced chemiluminescent (ECL) detection reagents (Amersham).
In general terms: In western blotting, separated proteins are transferred to a membrane and probed.

For assay [2], the target named is T1, SCAP (Cricetulus griseus, UniProt P97260).
T1 construct: endogenous in cells; host or cells: CHO-K1 (membrane fraction extracted with 0.1% FOS-Choline 10)
T1 sequence (P97260 1-1276): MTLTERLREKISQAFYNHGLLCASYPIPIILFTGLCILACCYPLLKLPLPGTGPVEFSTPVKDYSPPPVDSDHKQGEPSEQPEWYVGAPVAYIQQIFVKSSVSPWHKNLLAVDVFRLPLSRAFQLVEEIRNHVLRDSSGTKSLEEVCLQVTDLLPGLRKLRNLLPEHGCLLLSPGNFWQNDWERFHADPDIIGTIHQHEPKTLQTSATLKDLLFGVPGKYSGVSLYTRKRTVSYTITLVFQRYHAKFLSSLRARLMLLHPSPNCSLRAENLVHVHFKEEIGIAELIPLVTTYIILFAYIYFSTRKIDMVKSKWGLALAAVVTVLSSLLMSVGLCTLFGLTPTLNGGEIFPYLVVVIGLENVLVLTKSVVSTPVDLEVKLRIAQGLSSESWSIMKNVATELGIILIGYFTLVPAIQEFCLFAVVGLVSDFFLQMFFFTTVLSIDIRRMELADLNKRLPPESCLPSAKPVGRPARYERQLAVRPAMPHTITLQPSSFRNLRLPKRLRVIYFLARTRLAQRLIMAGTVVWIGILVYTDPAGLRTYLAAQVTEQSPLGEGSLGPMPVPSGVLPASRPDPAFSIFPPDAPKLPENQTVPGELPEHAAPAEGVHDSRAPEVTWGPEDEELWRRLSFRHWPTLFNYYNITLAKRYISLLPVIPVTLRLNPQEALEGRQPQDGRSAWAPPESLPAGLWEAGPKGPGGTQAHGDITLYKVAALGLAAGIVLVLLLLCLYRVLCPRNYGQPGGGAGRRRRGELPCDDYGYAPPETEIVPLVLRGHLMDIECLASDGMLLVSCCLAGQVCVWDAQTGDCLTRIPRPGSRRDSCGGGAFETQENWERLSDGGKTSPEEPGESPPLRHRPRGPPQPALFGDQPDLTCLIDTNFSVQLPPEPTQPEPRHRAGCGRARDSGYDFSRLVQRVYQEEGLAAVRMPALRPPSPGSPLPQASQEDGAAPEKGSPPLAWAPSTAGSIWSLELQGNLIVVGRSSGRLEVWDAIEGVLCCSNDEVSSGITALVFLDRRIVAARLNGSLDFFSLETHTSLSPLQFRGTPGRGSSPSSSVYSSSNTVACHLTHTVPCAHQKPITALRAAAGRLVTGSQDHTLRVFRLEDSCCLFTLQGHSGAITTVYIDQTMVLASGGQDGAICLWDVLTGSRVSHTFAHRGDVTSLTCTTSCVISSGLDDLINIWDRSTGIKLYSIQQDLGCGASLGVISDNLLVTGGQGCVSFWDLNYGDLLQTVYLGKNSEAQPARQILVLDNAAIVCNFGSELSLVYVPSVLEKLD
The assay is described as follows: Binding assay, biotinylated fatostatin on Neutravidine-agarose beads, CHO-K1 membrane extract. Also noted: species or system Chinese hamster. The following applies: not bound: SREBP-1, SREBP-2, ATF6. The text has this: The selective ER localization implies that fatostatin binds to a protein in the ER; the most likely candidate is SCAP, the target of cholesterol for the control of SREBP (Radhakrishnan et al., 2004). To test this hypothesis, proteins bound to a fatostatin-polyproline linker-biotin conjugate (FIG. 20A) (Sato et al., 2007) were purified from cell lysates and analyzed by western blots with antibodies against SCAP, SREBP-1, SREBP-2, and ATF6, an unrelated ER-bound transcription factor (Ye et al., 2000). […] The binding was lost upon addition of excess fatostatin, but not excess cholesterol (FIG. 20D), raising the possibility that fatostatin may interact with SCAP in a site distinct from that of cholesterol.
Binding assay. Cell membrane fractions were prepared as described in Supplementary Methods. The membrane fraction was extracted with PBS containing 0.1% FOS-Choline 10 (Hampton Research). The extract was mixed with Neutravidine-agarose beads (10 μL) saturated with biotinylated fatostatin and incubated for 1 h. The bound proteins were washed four times with PBS containing 0.1% FOS-Choline 10, boiled in 25 μL of SDS sample buffer, and subjected to western blotting. For the competition assay, saturated amounts of cholesterol or fatostatin were added to the membrane extract before incubating with the beads.

The subject of assay [3] is SUM159 cells. Nature of the assay: SUM159 cell growth, WST-1 assay, and lipogenic gene expression. Type of assay: cell-based, human. On the procedure:
Cells were seeded onto 96 well plates at a density of 10000 cells/well in 100 ul medium containing 2% charcoal stripped serum. After 24 hours, compound 19 was added to the cells at the indicated concentrations for another 48 hours. Cell viability was determined using WST-1 assay.
Cells seeded onto 96 well plates at a density of 5000 cells/well in 100 μl medium containing 2% charcoal treated serum. After 24 hours different concentrations of compound 19 were added for an additional 48 hours. Cell viability was measured using WST-1 Cell Viability and Proliferation Assay (ScienCell Research Laboratory, Carlsbad Calif.). Changes in expression levels of lipogenic genes mRNA was determined in cells that were treated with 10 μM. […] Insig2 gene which is not known to be regulated by these transcription factors was not affected by the treatment (FIG. 33B).

With `CCCc1cc(-c2nc(-c3ccc(C)cc3)cs2)ccn1` [Compound 1, 2-propyl-4-(4-p-tolylthiazol-2-yl)pyridine], the “amounts of mature and precursor forms of SREBP-1 (western blot)” value in assay [1] was “decreased the amounts of the 68 KDa mature form of SREBP-1 in a dose-dependent manner”. Also, the “binding to SCAP (western blot of bound proteins)” value in assay [2] is “bound to SCAP”.

As to `CCCc1cc(-c2nc(-c3ccc(NS(C)(=O)=O)cc3)cs2)ccn1` [Compound 19, N-(4-(2-(2-propylpyridin-4-yl)thiazol-4-yl)phenyl)methanesulfonamide], the “expression levels of lipogenic genes mRNA under the control of SREBPs” value in assay [3] (10 μM, Insig2 not affected) is “significant downregulation”. Further, the “cell growth / viability” value in assay [3] (different concentrations, 48 hours, 2% charcoal treated serum) was “inhibition of cell growth and a toxic effect”.
